Holding throughout (assay): Broth microdilution MIC in iron-depleted CAMHB (IDM)
Common to all, as to type: cell-based
For orientation: Dilution methods test growth across graded concentrations, often in twofold steps.

For one assay, the system named is A. baumannii ATCC 17978. The settings on record: Acinetobacter baumannii, ATCC17978, read-out: Minimum Inhibitory Concentration, ATCC 17978. In outline: (§1)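 CLSI broth microdilution in iron-depleted CAMHB (Chelex 100-treated, Ca, Mg and 10 μM Zn re-added, pH 7.3). Inoculum was 2-8×10^5 CFU/mL from 3-5 h IDM cultures. Plates were incubated at 37° C for 20-24 h (Acinetobacter) or 16-20 h (Pseudomonas), and MIC was read visually as the lowest concentration without growth.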

For assay [1], the system named is A. baumannii CDC-0033 producing NDM-1, and OXA-94. The settings on record: Acinetobacter baumannii, read-out: Minimum Inhibitory Concentration, CDC-0033. The method in brief:
as §1

The test system of assay [2] is A. baumannii CDC-0036 OXA-65, and OXA-24. The settings on record: Acinetobacter baumannii, read-out: Minimum Inhibitory Concentration, CDC-0036. The method in brief:
as §1

Assay [3] has as its system A. baumannii CDC-0083 producing NDM-1, PER-7, OXA-23, and OXA-69. The settings on record: Acinetobacter baumannii, read-out: Minimum Inhibitory Concentration, CDC-0083. The method in brief:
as §1

Assay [4] has as its system P. aeruginosa (ΔmexAB-oprM). To be noted: Pseudomonas aeruginosa, read-out: Minimum Inhibitory Concentration, P. aeruginosa ΔmexAB-OprM. In outline:
as §1

The subject of another assay is P. aeruginosa ATCC 35151. The settings on record: Pseudomonas aeruginosa, ATCC35151; iron-depleted MHB (IDM); hyper-permeable strain; read-out: Minimum Inhibitory Concentration, P. aeruginosa ATCC 35151. In outline: as §1
Assay [5] deals with P. aeruginosa CDC-0090 producing KPC-5, OXA-50, and PAO. To be noted: Pseudomonas aeruginosa, read-out: Minimum Inhibitory Concentration, P. aeruginosa CDC-0090. The method in brief: as §1
In assay [6] the test system is A. baumannii CDC-0045 producing TEM-1D, OXA-23, and OXA-69. The settings on record: Acinetobacter baumannii, read-out: Minimum Inhibitory Concentration, CDC-0045.

Values after ≈ are worked out from the molar mass of the structure shown.

On to `CCN1CCN(C(=O)N[C@H](C(=O)N[C@H]2Cc3ccc(F)c(C(=O)O)c3OB2O)c2ccc(O)c(O)c2)C(=O)C1=O` [Example 210, (R)-3-((S)-2-(3,4-dihydroxyphenyl)-2-(4-ethyl-2,3-dioxopiperazine-1-carboxamido)acetamido)-7-fluoro-2-hydroxy-3,4-dihydro-2H-benzo[e][1,2]oxaborinine-8-carboxylic acid], for which the MIC was above 128 µg/mL in the assay with A. baumannii ATCC 17978; above 128 µg/mL in assay [1]; above 128 µg/mL in assay [2]; above 128 µg/mL in assay [3]; 8 to 16 µg/mL (≈ 14.3 to 28.7 µM) in assay [4]; 2 to 4 µg/mL (≈ 3.58 to 7.16 µM) in the assay on P. aeruginosa ATCC 35151. Moreover, the MIC in assay [5] and in assay [6] was above 128 µg/mL each time.
Take `CCN1CCN(C(=O)N[C@@H](C(=O)N[C@H]2Cc3ccc(F)c(C(=O)O)c3OB2O)c2ccc(O)c(O)c2)C(=O)C1=O` [Example 211, (R)-3-((R)-2-(3,4-dihydroxyphenyl)-2-(4-ethyl-2,3-dioxopiperazine-1-carboxamido)acetamido)-7-fluoro-2-hydroxy-3,4-dihydro-2H-benzo[e][1,2]oxaborinine-8-carboxylic acid]: the MIC is 2 to 4 µg/mL (≈ 3.58 to 7.16 µM) in the assay with A. baumannii ATCC 17978; 32 to 64 µg/mL (≈ 57.3 to 115 µM) in assay [1]; 8 to 16 µg/mL (≈ 14.3 to 28.7 µM) in assay [2]; above 128 µg/mL in assay [3]; 0.25 µg/mL (≈ 0.448 µM) in assay [4]; 0.25 µg/mL (≈ 0.448 µM) with P. aeruginosa ATCC 35151. Besides, the MIC is 8 to 16 µg/mL (≈ 14.3 to 28.7 µM) in assay [5] and above 128 µg/mL in assay [6].

Values taken from patent US20230114728A1 (Venatorx Pharmaceuticals, Inc., priority 2019, published 2023).
